Source: PubChem BioAssay (NCI)
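Dose response: 5 concentrations. Exposure: 48 h. Format: 96-well plates. Endpoint: linear interpolation; highest concentration if not reached. The concentration for 50% growth inhibition is given as GI50. TGI marks complete inhibition of growth.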

Tests used:
Test in all cases: inhibition of tumour cell growth, NCI panel, 48 h
UO-31 renal = tested on: UO-31 renal
ACHN renal = tested on: ACHN renal
NCI/ADR-RES ovarian = tested on: NCI/ADR-RES ovarian
SW-620 colon = tested on: SW-620 colon
NCI-H226 lung = tested on: NCI-H226 lung
NCI-H23 lung = tested on: NCI-H23 lung
SR leukemia = tested on: SR leukemia
RXF 393 renal = tested on: RXF 393 renal
NCI-H460 lung = tested on: NCI-H460 lung
IGROV1 ovarian = tested on: IGROV1 ovarian
KM12 colon = tested on: KM12 colon
BT-549 breast = tested on: BT-549 breast
SNB-19 CNS = tested on: SNB-19 CNS
COLO 205 colon = tested on: COLO 205 colon
UACC-62 melanoma = tested on: UACC-62 melanoma
RPMI-8226 leukemia = tested on: RPMI-8226 leukemia
HOP-62 NSCLC = tested on: HOP-62 NSCLC
NCI-H522 lung = tested on: NCI-H522 lung
MALME-3M melanoma = tested on: MALME-3M melanoma
SK-OV-3 ovarian = tested on: SK-OV-3 ovarian
U251 CNS = tested on: U251 CNS
K-562 leukemia = tested on: K-562 leukemia
MDA-MB-435 = tested on: MDA-MB-435
T-47D breast = tested on: T-47D breast
TK-10 renal = tested on: TK-10 renal
OVCAR-3 ovarian = tested on: OVCAR-3 ovarian
PC-3 prostate = tested on: PC-3 prostate
SK-MEL-2 melanoma = tested on: SK-MEL-2 melanoma
SNB-75 CNS = tested on: SNB-75 CNS
SK-MEL-28 melanoma = tested on: SK-MEL-28 melanoma
HOP-92 NSCLC = tested on: HOP-92 NSCLC
MDA-MB-231 breast = tested on: MDA-MB-231 breast
SN12C renal = tested on: SN12C renal
MOLT-4 leukemia = tested on: MOLT-4 leukemia
HL-60(TB) leukemia = tested on: HL-60(TB) leukemia
CCRF-CEM leukemia = tested on: CCRF-CEM leukemia
SF-539 CNS = tested on: SF-539 CNS
786-0 renal = tested on: 786-0 renal
HCT-15 colon = tested on: HCT-15 colon
OVCAR-5 ovarian = tested on: OVCAR-5 ovarian
SK-MEL-5 melanoma = tested on: SK-MEL-5 melanoma
DU-145 prostate = tested on: DU-145 prostate
OVCAR-4 ovarian = tested on: OVCAR-4 ovarian
CAKI-1 renal = tested on: CAKI-1 renal
LOX IMVI melanoma = tested on: LOX IMVI melanoma
M14 melanoma = tested on: M14 melanoma
A498 renal = tested on: A498 renal
SF-295 CNS = tested on: SF-295 CNS
A549 NSCLC = tested on: A549 NSCLC
HS 578T breast = tested on: HS 578T breast
MCF7 breast = tested on: MCF7 breast
UACC-257 melanoma = tested on: UACC-257 melanoma
HCC-2998 colon = tested on: HCC-2998 colon
SF-268 CNS = tested on: SF-268 CNS
HT29 colon = tested on: HT29 colon
EKVX NSCLC = tested on: EKVX NSCLC
HCT-116 colon = tested on: HCT-116 colon
OVCAR-8 ovarian = tested on: OVCAR-8 ovarian

`Fc1ccc(-c2nnc3sc(-c4cc(Cl)cc(Cl)c4)nn23)cc1Cl` was tested. Which GI50 (UO-31 renal) did it give?
The GI50 was 39.6 µM.

What about the TGI (UO-31 renal) of the same compound?
The TGI was > 100 µM.

And the GI50 (ACHN renal)?
Its GI50 is 21 µM.

And the TGI (ACHN renal)?
The TGI was 45.6 µM.

What about the GI50 (NCI/ADR-RES ovarian) of the same compound?
Its GI50 is 34.9 µM.

And the TGI (NCI/ADR-RES ovarian)?
The TGI was > 100 µM.

And the GI50 (SW-620 colon)?
Its GI50 is 45 µM.

And the TGI (SW-620 colon)?
Its TGI is > 100 µM.

And the GI50 (NCI-H226 lung)?
The GI50 was 34.3 µM.

What about the TGI (NCI-H226 lung) of the same compound?
The TGI was > 100 µM.

And the GI50 (NCI-H23 lung)?
The GI50 was 37.2 µM.

And the TGI (NCI-H23 lung)?
The TGI was > 100 µM.

And the GI50 (SR leukemia)?
The GI50 was 13.3 µM.

And the TGI (SR leukemia)?
The TGI was 43.8 µM.

What about the GI50 (RXF 393 renal) of the same compound?
The GI50 was 1.51 µM.

And the TGI (RXF 393 renal)?
The TGI was 26.4 µM.

And the GI50 (NCI-H460 lung)?
Its GI50 is 39.3 µM.

What about the TGI (NCI-H460 lung) of the same compound?
The TGI was > 100 µM.

What about the GI50 (IGROV1 ovarian) of the same compound?
Its GI50 is > 100 µM.

What about the TGI (IGROV1 ovarian) of the same compound?
The TGI was > 100 µM.

And the GI50 (KM12 colon)?
Its GI50 is > 100 µM.

And the TGI (KM12 colon)?
The TGI was > 100 µM.

What about the GI50 (BT-549 breast) of the same compound?
Its GI50 is 87.1 µM.

And the TGI (BT-549 breast)?
Its TGI is > 100 µM.

And the GI50 (SNB-19 CNS)?
Its GI50 is 32.3 µM.

What about the TGI (SNB-19 CNS) of the same compound?
Its TGI is > 100 µM.

What about the GI50 (COLO 205 colon) of the same compound?
Its GI50 is 56.6 µM.

And the TGI (COLO 205 colon)?
Its TGI is > 100 µM.

And the GI50 (UACC-62 melanoma)?
The GI50 was 31.1 µM.

And the TGI (UACC-62 melanoma)?
The TGI was > 100 µM.

And the GI50 (RPMI-8226 leukemia)?
The GI50 was 46.8 µM.

What about the TGI (RPMI-8226 leukemia) of the same compound?
The TGI was > 100 µM.

And the GI50 (HOP-62 NSCLC)?
Its GI50 is 20.3 µM.

What about the TGI (HOP-62 NSCLC) of the same compound?
Its TGI is 42 µM.

What about the GI50 (NCI-H522 lung) of the same compound?
Its GI50 is 49.7 µM.

And the TGI (NCI-H522 lung)?
The TGI was > 100 µM.

What about the GI50 (MALME-3M melanoma) of the same compound?
The GI50 was 37.7 µM.

What about the TGI (MALME-3M melanoma) of the same compound?
The TGI was > 100 µM.

And the GI50 (SK-OV-3 ovarian)?
The GI50 was 24.6 µM.

And the TGI (SK-OV-3 ovarian)?
The TGI was 46.3 µM.

What about the GI50 (U251 CNS) of the same compound?
The GI50 was 17.3 µM.

And the TGI (U251 CNS)?
The TGI was 43.6 µM.

And the GI50 (K-562 leukemia)?
The GI50 was > 100 µM.

And the TGI (K-562 leukemia)?
Its TGI is > 100 µM.

And the GI50 (MDA-MB-435)?
The GI50 was > 100 µM.

And the TGI (MDA-MB-435)?
The TGI was > 100 µM.

What about the GI50 (T-47D breast) of the same compound?
The GI50 was > 100 µM.

What about the TGI (T-47D breast) of the same compound?
The TGI was > 100 µM.

What about the GI50 (TK-10 renal) of the same compound?
Its GI50 is 20.5 µM.

And the TGI (TK-10 renal)?
Its TGI is 44 µM.

What about the GI50 (OVCAR-3 ovarian) of the same compound?
The GI50 was > 100 µM.

And the TGI (OVCAR-3 ovarian)?
The TGI was > 100 µM.

What about the GI50 (PC-3 prostate) of the same compound?
The GI50 was 61.3 µM.

And the TGI (PC-3 prostate)?
The TGI was > 100 µM.

What about the GI50 (SK-MEL-2 melanoma) of the same compound?
The GI50 was > 100 µM.

What about the TGI (SK-MEL-2 melanoma) of the same compound?
The TGI was > 100 µM.

And the GI50 (SNB-75 CNS)?
The GI50 was 13 µM.

And the TGI (SNB-75 CNS)?
Its TGI is 30.1 µM.

And the GI50 (SK-MEL-28 melanoma)?
The GI50 was > 100 µM.

And the TGI (SK-MEL-28 melanoma)?
Its TGI is > 100 µM.

And the GI50 (HOP-92 NSCLC)?
Its GI50 is 20.5 µM.

And the TGI (HOP-92 NSCLC)?
Its TGI is 52.4 µM.

And the GI50 (MDA-MB-231 breast)?
The GI50 was 17.2 µM.

And the TGI (MDA-MB-231 breast)?
The TGI was 39.4 µM.

What about the GI50 (SN12C renal) of the same compound?
Its GI50 is 34.2 µM.

And the TGI (SN12C renal)?
Its TGI is > 100 µM.

What about the GI50 (MOLT-4 leukemia) of the same compound?
The GI50 was 72.9 µM.

What about the TGI (MOLT-4 leukemia) of the same compound?
Its TGI is > 100 µM.

And the GI50 (HL-60(TB) leukemia)?
The GI50 was 99.1 µM.

What about the TGI (HL-60(TB) leukemia) of the same compound?
Its TGI is > 100 µM.

What about the GI50 (CCRF-CEM leukemia) of the same compound?
Its GI50 is 29 µM.

And the TGI (CCRF-CEM leukemia)?
The TGI was 86.8 µM.

What about the GI50 (SF-539 CNS) of the same compound?
Its GI50 is > 100 µM.

What about the TGI (SF-539 CNS) of the same compound?
The TGI was > 100 µM.

What about the GI50 (786-0 renal) of the same compound?
Its GI50 is 29.7 µM.

And the TGI (786-0 renal)?
Its TGI is > 100 µM.

What about the GI50 (HCT-15 colon) of the same compound?
Its GI50 is 72.5 µM.

What about the TGI (HCT-15 colon) of the same compound?
The TGI was > 100 µM.

And the GI50 (OVCAR-5 ovarian)?
The GI50 was 70.1 µM.

What about the TGI (OVCAR-5 ovarian) of the same compound?
Its TGI is > 100 µM.

What about the GI50 (SK-MEL-5 melanoma) of the same compound?
The GI50 was > 100 µM.

What about the TGI (SK-MEL-5 melanoma) of the same compound?
Its TGI is > 100 µM.

What about the GI50 (DU-145 prostate) of the same compound?
The GI50 was > 100 µM.

What about the TGI (DU-145 prostate) of the same compound?
The TGI was > 100 µM.

And the GI50 (OVCAR-4 ovarian)?
Its GI50 is 17.4 µM.

What about the TGI (OVCAR-4 ovarian) of the same compound?
Its TGI is 53.4 µM.

What about the GI50 (CAKI-1 renal) of the same compound?
Its GI50 is 33.5 µM.

What about the TGI (CAKI-1 renal) of the same compound?
The TGI was 96.4 µM.

What about the GI50 (LOX IMVI melanoma) of the same compound?
Its GI50 is 32.8 µM.

And the TGI (LOX IMVI melanoma)?
Its TGI is > 100 µM.

And the GI50 (M14 melanoma)?
The GI50 was 41.3 µM.

What about the TGI (M14 melanoma) of the same compound?
Its TGI is > 100 µM.

And the GI50 (A498 renal)?
The GI50 was 29 µM.

What about the TGI (A498 renal) of the same compound?
The TGI was 77.9 µM.

What about the GI50 (SF-295 CNS) of the same compound?
Its GI50 is 74.2 µM.

And the TGI (SF-295 CNS)?
The TGI was > 100 µM.

What about the GI50 (A549 NSCLC) of the same compound?
Its GI50 is 24.4 µM.

And the TGI (A549 NSCLC)?
The TGI was 61.8 µM.

And the GI50 (HS 578T breast)?
Its GI50 is 45.2 µM.

What about the TGI (HS 578T breast) of the same compound?
The TGI was > 100 µM.

And the GI50 (MCF7 breast)?
Its GI50 is 30.5 µM.

And the TGI (MCF7 breast)?
The TGI was > 100 µM.

And the GI50 (UACC-257 melanoma)?
The GI50 was 38.2 µM.

And the TGI (UACC-257 melanoma)?
The TGI was > 100 µM.

What about the GI50 (HCC-2998 colon) of the same compound?
The GI50 was > 100 µM.

What about the TGI (HCC-2998 colon) of the same compound?
The TGI was > 100 µM.

What about the GI50 (SF-268 CNS) of the same compound?
Its GI50 is 53 µM.

What about the TGI (SF-268 CNS) of the same compound?
Its TGI is > 100 µM.

What about the GI50 (HT29 colon) of the same compound?
Its GI50 is 28.1 µM.

And the TGI (HT29 colon)?
Its TGI is 83.3 µM.

What about the GI50 (EKVX NSCLC) of the same compound?
Its GI50 is > 100 µM.

And the TGI (EKVX NSCLC)?
The TGI was > 100 µM.

And the GI50 (HCT-116 colon)?
Its GI50 is 18.5 µM.

What about the TGI (HCT-116 colon) of the same compound?
The TGI was 44.2 µM.

And the GI50 (OVCAR-8 ovarian)?
The GI50 was 46.6 µM.

And the TGI (OVCAR-8 ovarian)?
Its TGI is > 100 µM.
